Laboratory results reported in paper PMC7136958, “Targeting the pregnane X receptor using microbial metabolite mimicry” (EMBO Molecular Medicine, 2020).

Experiments:
PXR = target: T1, PXR (Homo sapiens, UniProt O75469); assay: PXR reporter (p3A4-luc luciferase) assay in LS180 cells transiently transfected with wild-type PXR; conditions: for FOLD INDUCTION of PXR reporter luciferase activity: 24 h, over UT
T1 sequence (O75469 1-434): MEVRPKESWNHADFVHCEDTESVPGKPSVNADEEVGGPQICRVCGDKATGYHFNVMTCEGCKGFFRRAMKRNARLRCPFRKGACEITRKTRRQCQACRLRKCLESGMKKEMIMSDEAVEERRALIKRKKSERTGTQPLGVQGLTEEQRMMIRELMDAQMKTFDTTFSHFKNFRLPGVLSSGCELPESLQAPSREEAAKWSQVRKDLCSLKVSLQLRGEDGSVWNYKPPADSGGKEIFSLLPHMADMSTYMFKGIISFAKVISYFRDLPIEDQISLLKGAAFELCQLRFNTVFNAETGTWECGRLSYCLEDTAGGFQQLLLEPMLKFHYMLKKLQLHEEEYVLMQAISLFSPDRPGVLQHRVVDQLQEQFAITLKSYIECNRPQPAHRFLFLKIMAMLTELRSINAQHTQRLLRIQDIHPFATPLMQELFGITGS
Protocol: Incubations were performed in four technical replicates. After the treatments, cells were lysed and luciferase activity was measured on Tecan Infinite M200 Pro plate reader (Schoeller Instruments, Prague, Czech Republic). The data are expressed as fold induction ± SD of luciferase activity over the control cells (agonistic mode—in the absence of a model ligand) or as a percentage of maximal activation ± SD (antagonistic mode—in the presence of a model ligand). […] For all the transfection experiments, specifically multiplexed transfections, the control wells were mock‐transfected ([…]). However, to exclude non‐specific binding of PXR (or other factors) upstream of the luciferase gene within non‐PXR‐binding elements, we performed pilot experiments in different cell passages (P11, P14, and P17) of LS174T cells using a mock luciferase plasmid (luciferase not containing an upstream PXR‐binding element of the CYP3A4 promoter).

AhR = target: T2, AhR (Homo sapiens, UniProt P35869); assay: AhR reporter assay, HepG2 cells stably expressing pCYP1A1 luciferase (AZ-AHR); type: cell-based
T2 construct: endogenous in cells; host or cells: AZ-AHR (HepG2)
T2 sequence (P35869 11-848): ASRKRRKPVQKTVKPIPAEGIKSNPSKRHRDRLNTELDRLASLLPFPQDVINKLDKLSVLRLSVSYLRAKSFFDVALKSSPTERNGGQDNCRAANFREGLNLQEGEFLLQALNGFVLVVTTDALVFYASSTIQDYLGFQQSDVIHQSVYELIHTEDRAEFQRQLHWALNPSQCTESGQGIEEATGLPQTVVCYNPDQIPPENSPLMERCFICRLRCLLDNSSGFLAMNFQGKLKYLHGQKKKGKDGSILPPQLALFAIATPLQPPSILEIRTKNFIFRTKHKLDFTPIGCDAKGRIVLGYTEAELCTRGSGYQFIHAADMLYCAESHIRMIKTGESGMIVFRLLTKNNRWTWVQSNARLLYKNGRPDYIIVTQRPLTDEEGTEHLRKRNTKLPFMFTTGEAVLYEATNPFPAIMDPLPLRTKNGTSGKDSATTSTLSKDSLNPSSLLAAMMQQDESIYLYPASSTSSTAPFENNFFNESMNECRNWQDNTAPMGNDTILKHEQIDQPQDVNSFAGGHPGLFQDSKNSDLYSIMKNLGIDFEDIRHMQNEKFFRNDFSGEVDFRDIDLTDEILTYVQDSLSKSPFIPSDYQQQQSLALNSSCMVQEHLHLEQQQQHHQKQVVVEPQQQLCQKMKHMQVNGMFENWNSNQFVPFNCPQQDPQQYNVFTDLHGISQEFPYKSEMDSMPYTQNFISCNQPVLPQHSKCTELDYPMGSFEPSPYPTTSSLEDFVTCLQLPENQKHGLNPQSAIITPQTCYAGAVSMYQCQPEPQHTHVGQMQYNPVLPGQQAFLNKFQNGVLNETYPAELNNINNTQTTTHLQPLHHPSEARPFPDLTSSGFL
Protocol: Incubations were performed in four technical replicates.

[1] = AZ-AHR cells, 1 nM, fold vs DMSO
[2] = AZ-AHR cells, 10 nM, fold vs DMSO
[3] = AZ-AHR cells, 100 nM, fold vs DMSO
[4] = AZ-AHR cells, 1µM, fold vs DMSO
[5] = AZ-AHR cells, 10 µM, fold vs DMSO
[6] = LS180, read-out: FOLD INDUCTION of PXR reporter luciferase activity

Row | SMILES | aver (mean luciferase signal of H1-H4) (PXR; 1 nM) | FOLD INDUCTION of PXR reporter luciferase activity (PXR; 1 nM) [fold] | aver (mean luciferase signal of H1-H4) (PXR; 10 nM) | FOLD INDUCTION of PXR reporter luciferase activity (PXR; 10 nM) [fold] | aver (mean luciferase signal of H1-H4) (PXR; 100 nM) | FOLD INDUCTION of PXR reporter luciferase activity (PXR; 100 nM) [fold] | aver (mean luciferase signal of H1-H4) (PXR; 1 uM) | FOLD INDUCTION of PXR reporter luciferase activity (PXR; 1 uM) [fold] | aver (mean luciferase signal of H1-H4) (PXR; 10 uM) | FOLD INDUCTION of PXR reporter luciferase activity (PXR; 10 uM) [fold] | aver (mean luciferase signal of H1-H4) (PXR; 25 uM) | FOLD INDUCTION of PXR reporter luciferase activity (PXR; 25 uM) [fold] | AhR activation (in words) (AhR) | FOLD INDUCTION (AZ-AHR luciferase) (AhR; [1]) [fold] | FOLD INDUCTION (AZ-AHR luciferase) (AhR; [2]) [fold] | FOLD INDUCTION (AZ-AHR luciferase) (AhR; [3]) [fold] | FOLD INDUCTION (AZ-AHR luciferase) (AhR; [4]) [fold] | FOLD INDUCTION (AZ-AHR luciferase) (AhR; [5]) [fold] | other results
1 | O=S(=O)(c1ccccc1)n1c(C(O)Cc2cc3ccccc3[nH]2)cc2ccccc21 (racemic) [FKK8] | 3847.5 | 1.0 | 4121.3 | 1.1 | 8608.8 | 2.3 | 58017.5 | 15.3 | 99864.5 | 26.3 | 75044.8 | 19.7 | variable degrees of dose‐dependent AhR activation profiles | 0.6 | 0.7 | 1.1 | 2.3 | 40.8 | 
2 | Cc1[nH]c2ccccc2c1C(c1c(C)[nH]c2ccccc12)c1c(C)[nH]c2ccccc12 [FKK999, reference compound] | 2509.3 |  | 3525.3 |  | 5905.5 |  | 26021.5 |  | 42646.5 |  | 44375.0 |  | variable degrees of dose‐dependent AhR activation profiles |  |  |  |  |  | aver (mean luciferase signal of H1-H4) (PXR; 50 uM): 44986.8; fold induction at 0.001 µM (PXR; [6]): 1.39; fold induction at 0.01 µM (PXR; [6]): 1.95; fold induction at 0.1 µM (PXR; [6]): 3.27; fold induction at 1 µM (PXR; [6]): 14.4; fold induction at 10 µM (PXR; [6]): 23.6; fold induction at 25 µM (PXR; [6]): 24.5; fold induction at 50 µM (PXR; [6]): 24.9; PXR activation (in words) (PXR; cell-based transactivation): activated PXR; fold induction at 24 h, 0.001 µM (AhR; human, AZ-AHR cells, 1 nM, fold vs DMSO): 1; fold induction at 24 h, 0.01 µM (AhR; human, AZ-AHR cells, 10 nM, fold vs DMSO): 1; fold induction at 24 h, 0.1 µM (AhR; human, AZ-AHR cells, 100 nM, fold vs DMSO): 3.5; fold induction at 24 h, 1 µM (AhR; human, AZ-AHR cells, 1µM, fold vs DMSO): 10.2; fold induction at 24 h, 10 µM (AhR; human, AZ-AHR cells, 10 µM, fold vs DMSO): 28.2
3 | CC#CC(O)(c1ccncc1)c1cc2ccccc2n1S(=O)(=O)c1ccccc1 (racemic) [FKK3] | 5303.8 | 2.5 | 3556.8 | 1.7 | 7075.5 | 3.3 | 50228.8 | 23.5 | 65270.5 | 30.5 | 57813.0 | 27.0 | variable degrees of dose‐dependent AhR activation profiles | 0.8 | 0.7 | 0.9 | 1.1 | 5.3 | 
